Patent publication US5840732A, “Imidazopyridine or imidazopyrimidine compounds, their production and use” (Takeda Chemical Industries Ltd., priority 1994, dated 1998)

Experiments:
[1] = test system: ICAM-1 expression in human umbilical cord vascular endothelial cells; test: Inhibitory activity of adhesion molecule expression (ICAM-1, cell-ELISA); type: cell-based; settings: TNFα 1 ng/ml, 37° C., 5 hours
Experimental: (§1) Inhibitory activity of adhesion molecule expression
(§2) Test method: To human umbilical cord vascular endothelial cells (purchased from Kurabo), cultured on gelatin-coated plates, compounds at various concentrations (test compounds) were added, followed by incubation at 37° C. for 15 minutes. Human tumor necrosis factor (TNFα, purchased from Genzyme) was then added to a final concentration of 1 ng/ml, followed by incubation at 37° C. for 3 hours for ELAM-1 expression or for 5 hours for ICAM-1 expression. After the reaction, cells were fixed with glutaraldehyde; the amounts of ELAM-1 and ICAM-1 expressed were determined by cell-ELISA. Anti-ELAM-1 antibody BBA-2 and an anti-ICAM-1 antibody BBA-4 were used as the first antibodies for the defection of ELAM-1 and ICAM-1, respectively, and horse radish peroxidase-labeled rabbit anti-mouse IgG antibody was used as the second antibody to determine the amount of adhesion molecules expressed on cells observed. The compound concentration at which 50% expression was expressed as the 50% inhibitory concentration (IC50), with the amount of expression in the absence of compounds as 100 and the amount of expression in the absence of TNFα as 0.

[2] = test system: ELAM-1 expression in human umbilical cord vascular endothelial cells; test: Inhibitory activity of adhesion molecule expression (ELAM-1, cell-ELISA); type: cell-based; settings: TNFα 1 ng/ml, 37° C., 3 hours
Experimental: as §1, §2

mouse skin allograft = test: Immunosuppressive action on mouse skin allograft; type: in vivo, mouse (BIOBR donors, C57BL/10 recipients); settings: 16 days
Experimental: Immunosuppressive action on mouse skin allograft
Test method: Male BIOBR mice and C57BL/10 mice, both at 6 weeks of age, were used as donors and recipients, respectively, and Grafts were prepared by killing donors by cervical vertebral dislocation, collecting full-thickness skin grafts from tail using a razor and tweezers, and cutting them into about 5 mm square pieces. Each graft was kept standing on gauze soaked with physiological saline, and used as soon as the recipient was prepared. Transplantation beds were prepared as follows. The recipient's back was clipped using clippers and sterilized with Isodine. Under ether anesthesia, back skin was picked up with tweezers, and a full-thickness skin graft was cut out into an about 5 mm square piece using scissors. The graft was transferred to the transplantation bed thus prepared, and fixed firmly using bandage. At 7 days after surgery, the bandage was removed, and the mice were observed every day to determine the day of complete necrosis of the graft as the rejection day. The compound was intraperitoneally administered in suspension in 5% gum arabic for 16 days after surgery.

| IC50 [1] [nM] | IC50 [2] [nM] | SMILES | Mean Rejection Day (mouse skin allograft; 50 mg/kg/day intraperitoneal, control 13.0) [days] | Mean Rejection Day (mouse skin allograft; 10 mg/kg/day intraperitoneal, control 13.5) [days] |
| --- | --- | --- | --- | --- |
| 4600 | 2900 | CCCC=C1SC(=O)N(CCCCOc2cccn3ccnc23)C1=O [compound 22] | 18.8 |  |
| 1100 | 800 | O=c1c(-c2ccccc2)c2n(c(=O)n1CCCCSc1cccc3nccn13)CCCS2(=O)=O [compound 24] |  | 27.0 |
